From US8796253B2, “Heteroaryl substituted pyrazole derivatives useful for treating hyper-proliferative disorders and diseases associated with angiogenesis” (Bayer Intellectual Property GmbH, priority 2007, dated 2014)

Tested on: HCT-116 cells stably transfected with a Luciferase reporter gene under the control of HIF-responsive element
Assay: HIF-Luciferase Assay
Assay type: cell-based
Details: Homo sapiens, HCT-116, HIF-Luciferase Assay, HCT-116 reporter cells, overnight at 1% oxygen
Protocol: HCT-116 cells stably transfected with a Luciferase reporter gene under the control of HIF-responsive element were plated in white 96- or 384-well plates at 30,000 or 5,000 cells/well, respectively, in 50 μL/well media (RPMI with 10% fetal bovine serum and 100 μg/mL Hygromycin). Cells were incubated overnight at 37° C. in a humidified incubator containing 5% CO2 under normal oxygen. The next day test compounds were added to the wells at various concentrations (0-10 μM, 0.1% final DMSO concentration) and placed in a hypoxic chamber overnight at 1% oxygen. Following the exposure to hypoxic conditions, 50 μL/well of Bright Glo reagent (Promega, Wisconsin, USA) was added to the wells and luminescence was measured after 5 min. Cells incubated under normal oxygen levels were used as background control. […] Compounds that have IC50 values between 1 μM and 10 μM include those of Examples 8, 16, 38, 39, 40, 41, 42, 43, 47, 48, 53, 54, 56, 57, 66, 69, and 72.

`Cc1ccc(Cn2nc(-c3nc(-c4ccc(-c5ccc(OC(F)(F)F)cc5)cc4)no3)cc2C)cc1` [Example 5, 5-[5-methyl-1-(4-methylbenzyl)-1H-pyrazol-3-yl]-3-[4′-(trifluoromethoxy)biphenyl-4-yl]-1,2,4-oxadiazole] was tested, and the IC50 (potency groups) was ≤ 1000 nM.

For `Cc1ccc(Cn2nc(-c3nc4ccc(C#N)cc4[nH]3)cc2C)cc1` [Example 54, 2-[5-methyl-1-(4-methylbenzyl)-1H-pyrazol-3-yl]-1H-benzimidazole-6-carbonitrile], the IC50 (potency groups) was 1000 to 10000 nM.

In the case of `Cc1ccc(Cn2nc(-c3nc(-c4ccc(OC(F)(F)F)cc4)c[nH]3)cc2C)cc1` [Example 65, 5-Methyl-1-(4-methylbenzyl)-3-{4-[4-(trifluoromethoxy)phenyl]-1H-imidazol-2-yl}-1H-pyrazole], the IC50 (potency groups) is reported as ≤ 1000 nM.

`Cc1ccc(Cn2nc(-c3nc4ccccc4[nH]3)cc2C)cc1` [Example 38, 2-[5-methyl-1-(4-methylbenzyl)-1H-pyrazol-3-yl]-1H-benzimidazole] showed an IC50 (potency groups) of 1000 to 10000 nM.

`Cc1ccc(Cn2nc(-c3nc4ccc(Oc5ccccc5)cc4o3)cc2C)cc1` [Example 30, 2-[5-methyl-1-(4-methylbenzyl)-1H-pyrazol-3-yl]-6-phenoxy-1,3-benzoxazole] was tested, and the IC50 (potency groups) was ≤ 1000 nM.

With `Cc1ccc(Cn2nc(-c3nc(-c4ccc(OC(F)(F)F)cc4)no3)cc2C)cc1` [Example 1] the IC50 (individual values) was 30 nM and the IC50 (potency groups) was ≤ 1000 nM.

`Cc1ccc(Cn2nc(-c3nc4ccc(-c5ccc(Cl)cc5)cc4[nH]3)cc2C)cc1` [Example 64, 6-(4-chlorophenyl)-2-[5-methyl-1-(4-methylbenzyl)-1H-pyrazol-3-yl]-1H-benzimidazole] was tested, and the IC50 (individual values) was 3 nM and the IC50 (potency groups) was ≤ 1000 nM.

With `Cc1ccc(Cn2nc(-c3nc(-c4ccc(N5CCCC5=O)cc4)no3)cc2C)cc1` [Example 24, 1-(4-{5-[5-Methyl-1-(4-methylbenzyl)-1H-pyrazol-3-yl]-1,2,4-oxadiazol-3-yl}phenyl)pyrrolidin-2-one] the IC50 (individual values) was 80 nM and the IC50 (potency groups) was ≤ 1000 nM.

For `Cc1ccc(Cn2nc(-c3nc4cc5cn[nH]c5cc4[nH]3)cc2C)cc1` [Example 48, 6-[5-methyl-1-(4-methylbenzyl)-1H-pyrazol-3-yl]-1,7-dihydroimidazo[4,5-f]indazole], the IC50 (potency groups) was 1000 to 10000 nM.

With `Cc1ccc(Cn2nc(-c3nc(-c4ccc(Br)cc4)no3)cc2C)cc1` [Example 3, 3-(4-bromophenyl)-5-[5-methyl-1-(4-methylbenzyl)-1H-pyrazol-3-yl]-1,2,4-oxadiazole] the IC50 (potency groups) was ≤ 1000 nM.

For `Cc1ccc(Cn2nc(-c3nc4cc5oc6ccccc6c5cc4[nH]3)cc2C)cc1` [Example 52, 2-[5-methyl-1-(4-methylbenzyl)-1H-pyrazol-3-yl]-1H-[1]benzofuro[2,3-f]benzimidazole], the IC50 (potency groups) was ≤ 1000 nM.
